Experimental data reported in the METLIN SMRT retention time set (Domingo-Almenara et al. 2019).

Assay: gradient 5% acetonitrile 3 min, to 50% in 2 min, to 85% in 15 min, held 3 min, 100 µL/min
Conditions: column: Zorbax Extend-C18 2.1 x 50 mm; eluents: water / acetonitrile, 0.1% formic acid
Procedure, shortened: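 Pure standards were run in mixtures of ~100 molecules by HPLC coupled to a quadrupole time-of-flight mass spectrometer. The column was a Zorbax Extend-C18 (2.1 × 50 mm, 1.8 μm) at 100 μL/min, with water and acetonitrile each containing 0.1% formic acid, in positive and negative ionization mode. Dead and dwell volumes were 40 μL and 900 μL. Retention time was taken from computationally picked adduct peaks, each manually inspected, with data collected over 3 months.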
In the case of `CCOc1ccccc1NC(=O)Cn1ncc2c(c1=O)N(C1CC1)C(=O)CS2`, the RP-LC retention time is reported as 775 s.
`Cc1ccsc1C(=O)NCC12CCCC=C1N(CC1CC1)C(=O)CC2` (stereo not drawn) gave an RP-LC retention time of 904 s.
In the case of `COc1ccc(Cc2nc3nccc(-c4ccc(F)cc4)n3n2)cc1`, the RP-LC retention time is reported as 882 s.
Molecule `CN1C(=O)CCC2(CNC(=O)c3cnccn3)CCC=C12` (stereo not drawn) has an RP-LC retention time of 644 s.
`CCN(CC)c1nc2cc(C(=O)OC)ccc2c(=O)n1-c1cc(F)cc(F)c1` gave an RP-LC retention time of 1180 s.
`COc1cccc(CNC(=O)N2CCC(N3CCN(Cc4cccc(F)c4)C(=O)C3=O)CC2)c1` showed an RP-LC retention time of 688 s.
In the case of `COC(=O)c1c(NCCc2c[nH]c3ccccc23)c2cccc(Cl)c2[nH]c1=O`, the RP-LC retention time is reported as 824 s.
`COc1cc(-c2noc(Cc3nnc(-c4ccc(C)c(F)c4)o3)n2)cc(OC)c1OC` gave an RP-LC retention time of 996 s.
Work on `CCNc1nc(NCC)nc(-n2cnc(SC)n2)n1` yielded an RP-LC retention time of 718 s.
For `CCN1C(=O)COc2ccc(-c3noc(-c4cccc(F)c4)n3)cc21`, the RP-LC retention time was 1170 s.
In the case of `Cc1nnc(C2CC3(CCN(CCc4ccccc4)CC3)CN2Cc2ccccc2)o1` (stereo not drawn), the RP-LC retention time is reported as 656 s.
Work on `COCCNC(=O)c1ccc2nc(CCc3ccc(NC(C)=O)cc3)[nH]c2c1` yielded an RP-LC retention time of 573 s.
Work on `COc1ccc(N2C(=O)C3N=NN(Cc4nc(-c5cccc(C)c5)no4)C3C2=O)cc1` (stereo not drawn) yielded an RP-LC retention time of 993 s.
For `COCC(=O)N(CC(=O)N1CCc2sccc2C1COc1ccc(Cl)cc1)C(C)(C)C` (stereo not drawn), the RP-LC retention time was 991 s.
`Cc1c(C(=O)O)nnn1-c1ccc2c(c1)CCC2` gave an RP-LC retention time of 759 s.
With `CCc1cccc(C)c1NC(=O)Cn1ncc2c(N3CCN(c4ccccn4)CC3)ncnc21` the RP-LC retention time was 570 s.
In the case of `CS(=O)(=O)N1CCC(C(=O)N2CCCc3ccccc32)Oc2ccc(Cl)cc21` (stereo not drawn), the RP-LC retention time is reported as 991 s.
With `Cn1c(=O)c(N2CCCC(C(=O)N3CCN(Cc4ccc5c(c4)OCO5)CC3)C2)nc2ccccc21` (stereo not drawn) the RP-LC retention time was 674 s.
In the case of `O=C(Cn1c(=O)c2cccn2c2ccc(F)cc21)NCCCN1CCc2ccccc2C1`, the RP-LC retention time is reported as 664 s.
In the case of `COc1ccccc1OCC(O)Cn1c(C2CC(=O)N(c3ccccc3)C2)nc2ccccc21` (stereo not drawn), the RP-LC retention time is reported as 736 s.
With `Cc1ccc(OCc2nn3c(-c4ccoc4C)nnc3s2)cc1` the RP-LC retention time was 1010 s.
With `O=C(CCc1nnn2c1CN(C(=O)c1ccc(F)cc1)CC2)NC1CC1` the RP-LC retention time was 617 s.
`Cc1ccc(NC(=O)N(C)Cc2ccoc2)cc1` gave an RP-LC retention time of 647 s.
Molecule `Cc1csc(NC(=O)CSc2nn3c(=O)c(C)nnc3s2)n1` has an RP-LC retention time of 613 s.
`Cc1cc(C)c(-c2nnc(NC(=O)c3ccccc3Br)s2)c(C)c1` showed an RP-LC retention time of 988 s.
In the case of `Cc1ccc(NC(=O)Nc2ccccc2C(N)=O)cc1`, the RP-LC retention time is reported as 815 s.
Molecule `COc1ccc(-c2cc(N3CCC(NC(=O)c4ccc(C#N)cc4)C3)n[nH]2)cc1` (stereo not drawn) has an RP-LC retention time of 685 s.
For `CCc1ccc(NC(=O)CN2CCc3[nH]c4c(OC)ccc(Cl)c4c(=O)c3C2)cc1`, the RP-LC retention time was 661 s.
`COc1ccccc1N1CCN(Cc2nc(-c3ccc(N4CCCC(C)C4)nc3)no2)CC1` (stereo not drawn) gave an RP-LC retention time of 848 s.
In the case of `CC(C)(NC(=O)c1ccoc1)c1nc2c(c(C(N)=O)n1)OCO2`, the RP-LC retention time is reported as 818 s.
In the case of `O=C(CCc1ccccc1)N1CCC(n2nnc3cc(F)ccc3c2=O)CC1`, the RP-LC retention time is reported as 879 s.
For `NC(=O)C1CCN(C2=NC(=O)/C(=C\c3ccc(-c4ccc(F)cc4)o3)S2)CC1`, the RP-LC retention time was 671 s.
Work on `Cc1csc(-c2ccc(CNC(=O)C3CCOC3)cc2)n1` (stereo not drawn) yielded an RP-LC retention time of 678 s.
`CCOc1ccc(CNC(=O)CCc2nnc3c4cc(-c5ccccc5)nn4ccn23)cc1` showed an RP-LC retention time of 785 s.
`CCOc1ccccc1C(=O)N1CCN=C1SCc1ccc([N+](=O)[O-])cc1` showed an RP-LC retention time of 898 s.
Molecule `Cc1nnc2c(=O)n(CC(=O)NCc3cccc(C(F)(F)F)c3)c3cccnc3n12` has an RP-LC retention time of 738 s.
`Cc1ccc(C)c(N2C(=O)CN(S(C)(=O)=O)CC2(C)C(=O)NCc2ccccc2)c1` (stereo not drawn) gave an RP-LC retention time of 809 s.
With `CCCCNC(=O)C1CCC(=O)N(c2cc(OC)c(OC)c(OC)c2)C1c1ccc(OC)cc1` (stereo not drawn) the RP-LC retention time was 709 s.
In the case of `CCOc1ccc(NC(=O)CN2C(=O)c3ccccc3Sc3ncccc32)cc1`, the RP-LC retention time is reported as 843 s.
For `Cc1ccc(Cl)cc1NC(=O)C1CCN(S(=O)(=O)c2ccc3c(c2)NC(=O)CO3)CC1`, the RP-LC retention time was 786 s.
`Cc1ccc(CNC(=O)Cn2nc(C)c3nn(-c4ccc(Cl)cc4)c(-n4cccc4)c3c2=O)o1` gave an RP-LC retention time of 1040 s.
With `CCn1c(=O)c(C(=O)NC2CCN(Cc3ccccc3)CC2)nc2cccnc21` the RP-LC retention time was 606 s.
`Cc1c(-c2cc(NS(=O)(=O)c3ccccc3Cl)n(C)n2)sc2ccc(Cl)cc12` gave an RP-LC retention time of 1160 s.
With `N#Cc1ccc(C(=O)NC2CCN(C(=O)N3C[C@H]4C[C@H](C3)[C@H]3CCCC(=O)N3C4)CC2)cc1` the RP-LC retention time was 640 s.
`Cc1ccccc1NC(=O)Cn1nc2nc(N3CCCC(C)C3)ccn2c1=O` (stereo not drawn) showed an RP-LC retention time of 798 s.
With `COc1ccc(C)cc1NC(=O)C1CCN(S(C)(=O)=O)c2ccccc2O1` (stereo not drawn) the RP-LC retention time was 994 s.
`Cc1cnn(CC(=O)N2CCc3nn(C)c(=O)n3CC2)c1` gave an RP-LC retention time of 577 s.
With `O=S(=O)(c1ccc(Cl)cc1)c1ccc(N2CCN(c3ccccn3)CC2)nn1` the RP-LC retention time was 651 s.
`Cc1ccc(CNC(=O)C2c3ccccc3CC(=O)N2C)cc1` (stereo not drawn) showed an RP-LC retention time of 748 s.
For `Cc1cc2nc(C(F)(F)F)c(=O)n(C(C)C(=O)N3CCN(C(=O)c4ccco4)CC3)c2cc1C` (stereo not drawn), the RP-LC retention time was 957 s.
Work on `Cc1ccc(C)c(NC(=O)C(=O)NCC(c2ccc3c(c2)OCO3)N2CCN(C)CC2)c1` (stereo not drawn) yielded an RP-LC retention time of 702 s.
Molecule `Cc1ccccc1Cn1c(CN2CCC(C(=O)N(C)Cc3ccco3)CC2)cc2ccccc21` has an RP-LC retention time of 816 s.
Molecule `CCc1noc(-c2ccnc(-n3cnc(C(=O)NC4CCCC4)c3)c2)n1` has an RP-LC retention time of 839 s.
`Cc1ccc(C)c(NC(=O)CN2C(=O)C3CCCCN3c3ccc(S(=O)(=O)N(C)C)cc32)c1` (stereo not drawn) gave an RP-LC retention time of 955 s.
`COc1ccccc1CCNC(=O)CSC1CCc2ccccc2NC1=O` (stereo not drawn) showed an RP-LC retention time of 784 s.
In the case of `CCc1onc(C)c1C1CCCN1C(=O)c1ccccc1F` (stereo not drawn), the RP-LC retention time is reported as 775 s.
In the case of `Cn1nccc1C(=O)Nc1ccsc1-c1nc(-c2ccccc2)no1`, the RP-LC retention time is reported as 1280 s.
With `O=C(CSCc1nc2cccnc2n1C1CCCCC1)N1CCN(c2ccccn2)CC1` the RP-LC retention time was 649 s.
With `Cc1ccccc1CNC(=O)c1cn(-c2cc(-c3nc(C4CC4)no3)ccn2)cn1` the RP-LC retention time was 982 s.
Work on `CCN1C(=O)COc2ccc(-c3nc(NC(=O)c4cccc(Br)c4)sc3C)cc21` yielded an RP-LC retention time of 1150 s.
`COCC(=O)NC1CCC12CCN(C(=O)C1CC1)CC2` (stereo not drawn) showed an RP-LC retention time of 619 s.
For `O=C(Cn1nc2c(N3CCCCCC3)nccn2c1=O)Nc1ccc2c(c1)OCO2`, the RP-LC retention time was 667 s.
With `O=S(=O)(NCc1ccc2c(c1)OCO2)N1CCOCC1` the RP-LC retention time was 677 s.
For `O=c1n(Cc2cccc(Br)c2)nc2c(S(=O)(=O)N3CCCCC3)cccn12`, the RP-LC retention time was 941 s.
With `COC(=O)C1=C(NC(=O)c2ccc(N3C(=O)CCC3=O)cc2)CCS1` the RP-LC retention time was 739 s.
In the case of `COCC1CN(C(C)=O)CC12CCN(C(=O)CSC)CC2` (stereo not drawn), the RP-LC retention time is reported as 602 s.
Molecule `O=c1c2sccc2n(Cc2nc(-c3ccc(Cl)c(F)c3)no2)c(=O)n1-c1cccc(F)c1` has an RP-LC retention time of 1090 s.
For `CC1(C)CC(=O)c2cn(-c3ccccc3)c(=O)c(C(=O)Nc3ccc(Cl)cn3)c2C1`, the RP-LC retention time was 1050 s.
Work on `O=C(NCCc1csc(-c2ccccc2)n1)C1CCN(S(=O)(=O)c2cccc(F)c2)CC1` yielded an RP-LC retention time of 922 s.
For `CN(CCc1noc(C2CN(Cc3ccc(Cl)c(F)c3)C2)n1)S(C)(=O)=O`, the RP-LC retention time was 633 s.
With `Cc1ccc2nc(C(=O)NCc3cccs3)cn2c1` the RP-LC retention time was 646 s.
For `COC(=O)c1cn(Cc2ccc(OC)c(F)c2)nc1S(=O)(=O)N1CCCCC1`, the RP-LC retention time was 945 s.
Work on `c1cncc(-c2nc(-c3ccc(OC4CNC4)cc3)no2)c1` yielded an RP-LC retention time of 605 s.
For `CC1CCN(c2cc(-n3cnc(C(=O)NC4CCCCC4)c3)ncn2)CC1`, the RP-LC retention time was 1030 s.
Work on `N#Cc1ccc(N2CCN(C(=O)COc3ccc4[nH]cc(CCN)c4c3)CC2)cc1` yielded an RP-LC retention time of 684 s.
With `O=C(Nc1nc(-c2ccc([N+](=O)[O-])cc2)cs1)c1ccc2ncsc2c1` the RP-LC retention time was 892 s.
For `CCc1noc(-c2ccnc(-n3cnc(C(=O)NC4CCCCC4)c3)c2)n1`, the RP-LC retention time was 915 s.
For `Cc1noc(C)c1S(=O)(=O)NCCn1c(C)cnc1-c1ccccc1`, the RP-LC retention time was 616 s.
In the case of `Cc1sc2cc(C(=O)N3CCN(c4ccccn4)CC3)[nH]c2c1CN1CCCC1`, the RP-LC retention time is reported as 558 s.
`O=C(NCc1cccc(Br)c1)C1CCN(c2nnc(-c3ccccc3)o2)CC1` showed an RP-LC retention time of 885 s.
Work on `COc1ccc(CNC(=O)c2ccc3c(=O)n(-c4ccccc4)c(N4CCCC4)nc3c2)c(OC)c1` yielded an RP-LC retention time of 879 s.
Molecule `Cc1ccc(NC(=O)Nc2c(-c3ccc(F)cc3)nc3ccccn23)cc1` has an RP-LC retention time of 692 s.
`C=CCN1CCN(c2ccc3nnc(CCc4nc(-c5ccc(F)cc5)no4)n3n2)CC1` gave an RP-LC retention time of 622 s.
Molecule `CC(NC(=O)C1CCCN(c2nccnc2Sc2ccccc2)C1)c1ccccc1` (stereo not drawn) has an RP-LC retention time of 1060 s.
With `COc1ccc(NC(=O)c2cnc3c(c2)c(=O)n(C)c(=O)n3-c2ccc(C)cc2)cc1OC` the RP-LC retention time was 836 s.
`CCC(C)C(NC(=O)CCc1ccc(OC)cc1)C(=O)Nc1nc2ccccc2[nH]1` (stereo not drawn) showed an RP-LC retention time of 734 s.
Work on `O=C(C1CCN(c2nnc(-c3ccccc3)o2)CC1)N1CCOCC1` yielded an RP-LC retention time of 668 s.
In the case of `CN1C(=O)c2ccccc2Oc2ccc(C(=O)NCc3cccs3)cc21`, the RP-LC retention time is reported as 847 s.
